Assay results reported in patent US20250114374A1, “BCL-2 INHIBITORS” (Newave Pharmaceutical Inc., priority 2021, published 2025).
Where two headings read alike, the source gives them in different places.

System: RS4; 11 with G101V mutation
Experiment: In vitro anti-proliferation assay (ATPlite luminescence) in BCL-2-dependent ALL cell line RS4;11 with G101V mutation
Type: cell-based
Details: read-out: RS411-G101V IC50
Procedure, shortened: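 IC50 came from luminescent ATP quantification (ATPlite) following cell lysis. Compound dose ranges were applied for roughly 72 h to about 1×10^4 G101V-mutant RS4;11 cells per well, in 10% FBS medium.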

[1] = cellular anti-proliferative IC50, about 72 hours, medium with 10% FBS, ATPlite

## COc1cc(CN2CCN(C3CC4(CCN(c5ccc(C(=O)NS(=O)(=O)c6ccc(NCC7CCC(C)(O)CC7)c([N+](=O)[O-])c6)c(N6c7cc8cc[nH]c8nc7O[C@H]7COCC[C@@H]76)c5)CC4)C3)[C@H](c3ccccc3C)C2)cnc1N1CCOCC1 (stereo partly drawn) [Example 123, N-((4-((((1r,4r)-4-hydroxy-4-methylcyclohexyl)methyl)amino)-3-nitrophenyl)sulfonyl)-4-(2-((R)-4-((5-methoxy-6-morpholinopyridin-3-yl)methyl)-2-(o-tolyl)piperazin-1-yl)-7-azaspiro[3.5]nonan-7-yl)-2-((5aS,9aR)-6,7,9,9a-tetrahydro-1H-pyrano[3,4-b]pyrrolo[3′,2′:5,6]pyrido[3,2-e][1,4]oxazin-5(5aH)-yl)benzamide]
[1]
  IC50: 2.9 nM

## Cc1ccccc1[C@@H]1CN([C@@H]2CCCOC2)CCN1C1CC2(CCN(c3ccc(C(=O)NS(=O)(=O)c4cc5c(c([N+](=O)[O-])c4)N[C@H](C4CCOCC4)CO5)c(N4c5cc6cc[nH]c6nc5O[C@H]5COCC[C@@H]54)c3)CC2)C1 [Example 178, N—(((R)-5-nitro-3-(tetrahydro-2H-pyran-4-yl)-3,4-dihydro-2H-benzo[b][1,4]oxazin-7-yl)sulfonyl)-2-((5aS,9aR)-6,7,9,9a-tetrahydro-1H-pyrano[3,4-b]pyrrolo[3′,2′:5,6]pyrido[3,2-e][1,4]oxazin-5(5aH)-yl)-4-(2-((R)-4-((R)-tetrahydro-2H-pyran-3-yl)-2-(o-tolyl)piperazin-1-yl)-7-azaspiro[3.5]nonan-7-yl)benzamide]
Homo sapiens, RS4-11, 72 h
  IC50: 40.9 nM

## COc1cc(CN2CCN(C3CC4(CCN(c5ccc(C(=O)NS(=O)(=O)c6cc7c(c([N+](=O)[O-])c6)N[C@H](C6CCOCC6)CO7)c(N6c7cc8cc[nH]c8nc7O[C@H]7COCC[C@@H]76)c5)CC4)C3)[C@H](c3ccccc3OC(C)C)C2)cnc1OC [Example 177, 4-(2-((R)-4-((5,6-dimethoxypyridin-3-yl)methyl)-2-(2-isopropoxyphenyl)piperazin-1-yl)-7-azaspiro[3.5]nonan-7-yl)-N-(((R)-5-nitro-3-(tetrahydro-2H-pyran-4-yl)-3,4-dihydro-2H-benzo[b][1,4]oxazin-7-yl)sulfonyl)-2-((5aS,9aR)-6,7,9,9a-tetrahydro-1H-pyrano[3,4-b]pyrrolo[3′,2′:5,6]pyrido[3,2-e][1,4]oxazin-5(5aH)-yl)benzamide]
Homo sapiens, RS4-11, 72 h
  IC50: 4 nM

## COc1cc(CN2CCN(C3CC4(CCN(c5ccc(C(=O)NS(=O)(=O)c6ccc(NCC7CCC(C)(O)CC7)c([N+](=O)[O-])c6)c(N6c7cc8cc[nH]c8nc7O[C@H]7COCC[C@@H]76)c5)CC4)C3)[C@@H](c3ccccc3C)C2)cnc1OC (stereo partly drawn) [Example 149, 4-(2-((S)-4-((5,6-dimethoxypyridin-3-yl)methyl)-2-(o-tolyl)piperazin-1-yl)-7-azaspiro[3.5]nonan-7-yl)-N-((4-((((1r,4r)-4-hydroxy-4-methylcyclohexyl)methyl)amino)-3-nitrophenyl)sulfonyl)-2-((5aS,9aR)-6,7,9,9a-tetrahydro-1H-pyrano[3,4-b]pyrrolo[3′,2′:5,6]pyrido[3,2-e][1,4]oxazin-5(5aH)-yl)benzamide]
[1]
  IC50: 28.3 nM

## Cc1ccccc1[C@@H]1CN([C@@H]2CCOc3c2ccc(F)c3F)CCN1C1CC2(CCN(c3ccc(C(=O)NS(=O)(=O)c4cc5c(c([N+](=O)[O-])c4)N[C@H](C4CCOCC4)CO5)c(N4c5cc6cc[nH]c6nc5O[C@H]5COCC[C@@H]54)c3)CC2)C1 [Example 195, 4-{2-[(2R)-4-[(4R)-7,8-difluoro-3,4-dihydro-2H-1-benzopyran-4-yl]-2-(2-methylphenyl)piperazin-1-yl]-7-azaspiro[3.5]nonan-7-yl}-2-[(3R,8S)-2,5-dioxa-9,15,17-triazatetracyclo[8.7.0.0^{3,8}.0^{12,16}]heptadeca-1(10),11,13,16-tetraen-9-yl]-N-[(3R)-5-nitro-3-(oxan-4-yl)-3,4-dihydro-2H-1,4-benzoxazin-7-ylsulfonyl]benzamide]
[1]
  IC50: 94.5 nM

## COc1cc(CN2CCN(C3CC4(CCN(c5ccc(C(=O)NS(=O)(=O)c6ccc(NC[C@H]7CC[C@](C)(O)CC7)c([N+](=O)[O-])c6)c(N6c7cc8cc[nH]c8nc7O[C@H]7COCC[C@@H]76)c5)CC4)C3)[C@@H](c3ccccc3OC(C)C)C2)ccc1C1CC1 [Example 157, 4-(2-((S)-4-(4-cyclopropyl-3-methoxybenzyl)-2-(2-isopropoxyphenyl)piperazin-1-yl)-7-azaspiro[3.5]nonan-7-yl)-N-((4-((((1r,4r)-4-hydroxy-4-methylcyclohexyl)methyl)amino)-3-nitrophenyl)sulfonyl)-2-((5aS,9aR)-6,7,9,9a-tetrahydro-1H-pyrano[3,4-b]pyrrolo[3′,2′:5,6]pyrido[3,2-e][1,4]oxazin-5(5aH)-yl)benzamide]
[1]
  IC50: 31.8 nM

## COc1c(CN2CCN(C3CC4(CCN(c5ccc(C(=O)NS(=O)(=O)c6ccc(NCC7CCC(C)(O)CC7)c([N+](=O)[O-])c6)c(N6c7cc8cc[nH]c8nc7O[C@H]7COCC[C@@H]76)c5)CC4)C3)[C@@H](c3ccccc3OC(C)C)C2)ccnc1N1CCOCC1 (stereo partly drawn) [Example 151, N-((4-((((1r,4r)-4-hydroxy-4-methylcyclohexyl)methyl)amino)-3-nitrophenyl)sulfonyl)-4-(2-((S)-2-(2-isopropoxyphenyl)-4-((3-methoxy-2-morpholinopyridin-4-yl)methyl)piperazin-1-yl)-7-azaspiro[3.5]nonan-7-yl)-2-((5aS,9aR)-6,7,9,9a-tetrahydro-1H-pyrano[3,4-b]pyrrolo[3′,2′:5,6]pyrido[3,2-e][1,4]oxazin-5(5aH)-yl)benzamide]
[1]
  IC50: 19.8 nM

## CC(C)Oc1ccccc1[C@@H]1CN([C@H]2COCc3cc(F)c(F)cc32)CCN1C1CC2(CCN(c3ccc(C(=O)NS(=O)(=O)c4cc5c(c([N+](=O)[O-])c4)N[C@H](C4CCOCC4)CO5)c(N4c5cc6cc[nH]c6nc5O[C@H]5COCC[C@@H]54)c3)CC2)C1 [Example 216, 4-(2-((R)-4-((R)-6,7-difluoroisochroman-4-yl)-2-(2-isopropoxyphenyl)piperazin-1-yl)-7-azaspiro[3.5]nonan-7-yl)-N-(((R)-5-nitro-3-(tetrahydro-2H-pyran-4-yl)-3,4-dihydro-2H-benzo[b][1,4]oxazin-7-yl)sulfonyl)-2-((5aS,9aR)-6,7,9,9a-tetrahydro-1H-pyrano[3,4-b]pyrrolo[3′,2′:5,6]pyrido[3,2-e][1,4]oxazin-5(5aH)-yl)benzamide]
Homo sapiens, RS4-11, 72 h
  IC50: 30.6 nM

## Cc1ccccc1[C@@H]1CN(Cc2ccc(F)c(F)c2)CCN1C1CC2(CCN(c3ccc(C(=O)NS(=O)(=O)c4cc5c(c([N+](=O)[O-])c4)N[C@@H](C4CCOCC4)CO5)c(N4c5cc6cc[nH]c6nc5O[C@H]5COCC[C@@H]54)c3)CC2)C1 [Example 167, 4-{2-[(2R)-4-[(3,4-difluorophenyl)methyl]-2-(2-methylphenyl)piperazin-1-yl]-7-azaspiro[3.5]nonan-7-yl}-2-[(3R,8S)-2,5-dioxa-9,15,17-triazatetracyclo[8.7.0.0^{3,8}.0^{12,16}]heptadeca-1(10),11,13,16-tetraen-9-yl]-N-[(3S)-5-nitro-3-(oxan-4-yl)-3,4-dihydro-2H-1,4-benzoxazin-7-ylsulfonyl]benzamide]
[1]
  IC50: 75.8 nM

## CC(C)Oc1ccccc1[C@@H]1CN(c2ccccn2)CCN1C1CC2(CCN(c3ccc(C(=O)NS(=O)(=O)c4cc5c(c([N+](=O)[O-])c4)N[C@H](C4CCOCC4)CO5)c(N4c5cc6cc[nH]c6nc5O[C@H]5COCC[C@@H]54)c3)CC2)C1 [Example 225, 2-[(3R,8S)-2,5-dioxa-9,15,17-triazatetracyclo[8.7.0.0^{3,8}.0^{12,16}]heptadeca-1(10),11,13,16-tetraen-9-yl]-4-{2-[(2R)-2-(2-isopropoxyphenyl)-4-(pyridin-2-yl)piperazin-1-yl]-7-azaspiro[3.5]nonan-7-yl}-N-[(3R)-5-nitro-3-(oxan-4-yl)-3,4-dihydro-2H-1,4-benzoxazin-7-ylsulfonyl]benzamide]
[1]
  IC50: 180 nM

## Cc1ccccc1[C@@H]1CN(C2CCOCC2)CCN1C1CC2(CCN(c3ccc(C(=O)NS(=O)(=O)c4ccc(NCC5CCC(C)(O)CC5)c([N+](=O)[O-])c4)c(N4c5cc6cc[nH]c6nc5O[C@H]5COCC[C@@H]54)c3)CC2)C1 (stereo partly drawn) [Example 114, 2-[(3R,8S)-2,5-dioxa-9,15,17-triazatetracyclo[8.7.0.0^{3,8}.0^{12,16}]heptadeca-1(10),11,13,16-tetraen-9-yl]-4-{2-[(2R)-2-(2-methylphenyl)-4-(oxan-4-yl)piperazin-1-yl]-7-azaspiro[3.5]nonan-7-yl}-N-[3-nitro-4-({[(1r,4r)-4-hydroxy-4-methylcyclohexyl]methyl}amino)benzenesulfonyl]benzamide]
[1]
  IC50: 11.8 nM

## CC(C)Oc1ccccc1[C@@H]1CN(Cc2ccc(F)c(F)c2)CCN1C1CC2(CCN(c3nc(N4c5cc6cc[nH]c6nc5O[C@H]5COCC[C@@H]54)c(C(=O)NS(=O)(=O)c4cc5c(c([N+](=O)[O-])c4)N[C@H](C4CCOCC4)CO5)cc3F)CC2)C1 [Example 234, 6-{2-[(2R)-4-[(3,4-difluorophenyl)methyl]-2-(2-isopropoxyphenyl)piperazin-1-yl]-7-azaspiro[3.5]nonan-7-yl}-2-[(3R,8S)-2,5-dioxa-9,15,17-triazatetracyclo[8.7.0.0^{3,8}.0^{12,16}]heptadeca-1(10),11,13,16-tetraen-9-yl]-5-fluoro-N-[(3R)-5-nitro-3-(oxan-4-yl)-3,4-dihydro-2H-1,4-benzoxazin-7-ylsulfonyl]pyridine-3-carboxamide]
[1]
  IC50: 181 nM

## Cc1ccccc1[C@@H]1CN([C@@H]2CCOc3cc(F)c(F)cc32)CCN1C1CC2(CCN(c3ccc(C(=O)NS(=O)(=O)c4cc5c(c([N+](=O)[O-])c4)N[C@H](C4CCOCC4)CO5)c(N4c5cc6cc[nH]c6nc5O[C@H]5COCC[C@@H]54)c3)CC2)C1 [Example 171, 4-{2-[(2R)-4-[(4R)-6,7-difluoro-3,4-dihydro-2H-1-benzopyran-4-yl]-2-(2-methylphenyl)piperazin-1-yl]-7-azaspiro[3.5]nonan-7-yl}-2-[(3R,8S)-2,5-dioxa-9,15,17-triazatetracyclo[8.7.0.0^{3,8}.0^{12,16}]heptadeca-1(10),11,13,16-tetraen-9-yl]-N-[(3R)-5-nitro-3-(oxan-4-yl)-3,4-dihydro-2H-1,4-benzoxazin-7-ylsulfonyl]benzamide]
[1]
  IC50: 220 nM
